Structures are written as SMILES.

This test has as its system Jurkat cells engineered to have enhanced green fluorescent protein (eGFP) reporter fused to nuclear factor of activated T cells (NFAT) transcription factor. The test can be described thus: NFAT-eGFP reporter assay in Jurkat cells with compounds photoreleased from labeled perturbation beads. The class given is cell-based. As to conditions: compounds released from beads by 10 seconds of 365 nm light, 60 mW/cm^2. Here is the method:
Individual beads were added to wells of a multiwell assay device. Jurkat cells engineered to have enhanced green fluorescent protein (eGFP) reporter fused to nuclear factor of activated T cells (NFAT) transcription factor were added to each well (cells purchased from BPS Bioscience, Catalog #78384). The compounds were released from the beads by exposure to 10 seconds of 365 nm wavelength light having illumination power of 60 mW/cm^2 and allowed to interact with the cells in the respective wells. […] This exemplifies using optically detectible labels on the bead to code for perturbation compounds and/or building blocks and corresponding that visible code to a cell perturbation.
A general note: Reporter assays use an easily measured gene product as a stand-in for the process of interest.

For the compound `COc1cc2c(cc1Nc1ncc(C(=O)O)c(Nc3c(F)cccc3C(F)(F)F)n1)CN(C)CC2` [HPK, 4-{[2-Fluoro-6-(trifluoromethyl)phenyl]amino}-2-[(6-methoxy-2-methyl-1,2,3,4-tetrahydro-7-isoquinolinyl)amino]-5-pyrimidine-5-carboxylic acid], the “change in NFAT-eGFP expression levels” value was “minimal change”. Then `Cc1sc2c(c1C)C(c1ccc(Cl)cc1)=NC([C@@H](C(=O)O)C(C)(C)C)c1nnc(C)n1-2` (stereo partly drawn) [JQ1, ((S)-tert-butyl 2-(4-(4-chlorophenyl)-2,3,9-trimethyl-6H-thieno[3,2-f] [1,2,4]triazolo[4,3-a] [1,4]diazepin-6-yl)acetic acid)], with “minimal change”; and `O=C1CCC(N2Cc3cc(C(=O)O)ccc3C2=O)C(=O)N1` (stereo not drawn) [LNI, 2-(2,6-dioxopiperidin-3-yl)-1-oxoisoindoline-5-carboxylic acid], with “minimal change”.

These data come from US12577556B2, “Perturbation beads for use in assays” (Zafrens Inc., priority 2022, dated 2026).
